Measurements taken from article PMC4995097, “Talin-KANK1 interaction controls the recruitment of cortical microtubule stabilizing complexes to focal adhesions” (eLife, 2016).

What was measured:
Format in all cases: cell-based, human
[1] = tested on: KANK1 at the cell edge of HeLa cells; assay: Peripheral clustering of KANK1
Protocol: (§1) HeLa Kyoto cell line was described previously ([Lansbergen et al., 2006]; [Mimori-Kiyosue et al., 2005]). HEK293T cells were purchased from ATCC; culture and transfection of DNA and siRNA into these cell lines was performed as previously described ([van der Vaart et al., 2013]). HaCaT cells were purchased at Cell Line Service (Eppelheim, Germany) and cultured according to manufacturer’s instructions. The cell lines were routinely checked for mycoplasma contamination using LT07-518 Mycoalert assay (Lonza, Switzerland).The identity of the cell lines was monitored by immunofluorescence-staining-based analysis with multiple markers. Blebbistatin was purchased from Enzo Life Sciences and used at 50 μM. Serum starvation in HeLa cells was done for 48 hr and focal adhesion assembly was stimulated by incubation with fetal calf serum-containing medium with or without blebbistatin for 2 hr. ROCK1 inhibitor Y-27632 was purchased at Sigma-Aldrich and used at 1 or 10 μM. Double stable HeLa cell line expressing GFP-KANK1 and TagRFP-paxillin was made by viral infection. We used a pLVIN-TagRFP-paxillin-based lentivirus and a pQC-GFP-KANK1-based retrovirus packaged in HEK293T cells using respectively Lenti-X HTX packaging and pCL-Ampho vectors. Antibiotic selection was applied to cells 48 hr after infection using 500 μg/ml G418 (Geneticin, Life Technologies) and 1 μg/ml puromycin (InvivoGen).
Antibodies against HA and GFP tags, and liprin β1 used for Western blot analysis were previously described ([van der Vaart et al., 2013]). Rabbit antibodies against KANK1 (HPA005539) and KANK2 (HPA015643) were purchased at Sigma-Aldrich. Western blot analysis of KANK1 was performed using rabbit polyclonal KANK1 antibody (A301-882A) purchased at Bethyl Laboratories. Talin immunofluorescence staining was performed using mouse monoclonal 8d4 antibody (Sigma-Aldrich). Western blot analysis of talin 1 and 2 expression was performed using respectively the isotype specific mouse monoclonal 97H6 (Sigma-Aldrich) and 68E7 (Abcam) antibodies. Ku80 (7/Ku80) antibody was purchased from BD Biosciences. Immunofluorescence staining of KANK1, LL5β, liprin β1, KIF21A and CLASP2 in HeLa and HaCaT cells was performed using the antibodies and procedures previously described ([Lansbergen et al., 2006]; [van der Vaart et al., 2013]). F-actin was stained using Alexa Fluor 594-conjugated phalloidin (Life Technologies). Phospho-tyrosine mouse antibody (PT-66) was purchased from Sigma-Aldrich and rabbit FAK phospho-tyrosine 397 was purchased from Biosource.
Fixed samples and corresponding immunofluorescence images were acquired using widefield fluorescence illumination on a Nikon Eclipse 80i or Ni upright microscope equipped with a CoolSNAP HQ2 CCD camera (Photometrics) or a DS-Qi2 camera (Nikon) an Intensilight C-HGFI precentered fiber illuminator (Nikon), ET-DAPI, ET-EGFP and ET-mCherry filters (Chroma), Nikon NIS Br software, Plan Apo VC 100x NA 1.4 oil, Plan Apo Lambda 100X oil NA 1.45 and Plan Apo VC 60x NA 1.4 oil (Nikon) objectives. TIRFM-based live cell imaging was performed using the setup described before ([van der Vaart et al., 2013]) or a similar Nikon Ti microscope-based Ilas^2 system (Roper Scientific, Evry, FRANCE) equipped with dual laser illuminator for azimuthal spinning TIRF (or Hilo) illumination, 150 mW 488 nm laser and 100 mW 561 nm laser, 49,002 and 49,008 Chroma filter sets, EMCCD Evolve mono FW DELTA 512x512 camera (Roper Scientific) with the intermediate lens 2.5X (Nikon C mount adapter 2.5X), CCD camera CoolSNAP MYO M-USB-14-AC (Roper Scientific) and controlled with MetaMorph 7.8.8 software (Molecular Devices). Simultaneous imaging of […] was performed as described before ([van der Vaart et al., 2013]) or using the Optosplit III image splitter device (Andor) on the Ilas^2 system.
For presentation, images were adjusted for brightness and processed by Gaussian blur and Unsharp mask filter using ImageJ 1.47v (NIH). […]

[2] = tested on: focal adhesions in HeLa cells; assay: FA area; settings: Y-27632, HeLa
Protocol: HeLa Kyoto cell line was described previously ([Lansbergen et al., 2006]; [Mimori-Kiyosue et al., 2005]). HEK293T cells were purchased from ATCC; culture and transfection of DNA and siRNA into these cell lines was performed as previously described ([van der Vaart et al., 2013]). HaCaT cells were purchased at Cell Line Service (Eppelheim, Germany) and cultured according to manufacturer’s instructions. The cell lines were routinely checked for mycoplasma contamination using LT07-518 Mycoalert assay (Lonza, Switzerland).The identity of the cell lines was monitored by immunofluorescence-staining-based analysis with multiple markers. Blebbistatin was purchased from Enzo Life Sciences and used at 50 μM. […]
For presentation, images were adjusted for brightness and processed by Gaussian blur and Unsharp mask filter using ImageJ 1.47v (NIH). Fluorescence profiles are values measured by line scan analysis in ImageJ, normalized by background average fluorescence, expressed as a factor of the baseline value obtained for individual channel and plotted as a function of maximum length factor of the selection line (distance ratio). Protein clustering at the cell edge is the ratio of the total fluorescence in the first 5 μm from the cell edge to the next 5 μm measured by line scan analysis in ImageJ after thresholding for cell outline marking and out-of-cell region value assigned to zero. […]

[3] = tested on: KANK1/talin in HeLa cells; assay: KANK1 and talin colocalization (Pearson R)
Protocol: as §1, with “We used a pLVIN-TagRFP-paxillin-based lentivirus and a pQC-GFP-KANK1-based retrovirus packaged in HEK293T cells using respectively Lenti-X HTX packaging and pCL-Ampho vectors. Antibiotic selection was applied to cells 48 hr after infection using 500 μg/ml G418 (Geneticin, Life Technologies) and 1 μg/ml puromycin (InvivoGen).” left out
For presentation, images were adjusted for brightness and processed by Gaussian blur and Unsharp mask filter using ImageJ 1.47v (NIH). Fluorescence profiles are values measured by line scan analysis in ImageJ, normalized by background average fluorescence, expressed as a factor of the baseline value obtained for individual channel and plotted as a function of maximum length factor of the selection line (distance ratio). Protein clustering at the cell edge is the ratio of the total fluorescence in the first 5 μm from the cell edge to the next 5 μm measured by line scan analysis in ImageJ after thresholding for cell outline marking and out-of-cell region value assigned to zero. […] KANK1/talin colocalization was analyzed using Pearson R value provided by Colocalization Analysis plugin under FiJi-ImageJ and a 3 μm diameter circular ROI centered on talin clusters detected by immunofluorescent staining.

[4] = tested on: focal adhesions in HeLa cells; assay: FA number
Protocol: as §1
For presentation, images were adjusted for brightness and processed by Gaussian blur and Unsharp mask filter using ImageJ 1.47v (NIH). Fluorescence profiles are values measured by line scan analysis in ImageJ, normalized by background average fluorescence, expressed as a factor of the baseline value obtained for individual channel and plotted as a function of maximum length factor of the selection line (distance ratio). Protein clustering at the cell edge is the ratio of the total fluorescence in the first 5 μm from the cell edge to the next 5 μm measured by line scan analysis in ImageJ after thresholding for cell outline marking and out-of-cell region value assigned to zero. The results were plotted as percentage of control condition average value. FA counting and area measurement was performed using Analyze Particles under ImageJ on focal adhesion binary mask obtained after Gaussian blur/threshold-based cell outline marking and background subtraction (rolling ball radius, 10 pixels). KANK1/talin colocalization was analyzed using Pearson R value provided by Colocalization Analysis plugin under FiJi-ImageJ and a 3 μm diameter circular ROI centered on talin clusters detected by immunofluorescent staining.

## C[C@@H](N)[C@H]1CC[C@H](C(=O)Nc2ccncc2)CC1 [Y-27632]
[1]; Y-27632 1 uM, 45 min, mean, n = 12, SEM 0.341991
  Peripheral clustering of KANK1, edge ratio, AV, 1 uM: 2.059
[1]; Y-27632 1 uM, 45 min, mean, n = 12, SEM 6.6857
  Peripheral clustering of KANK1, percentage of control, AV, 1 uM: 40.2515 percentage of control condition average value
[1]; Y-27632 10 uM, 45 min, mean, n = 12, SEM 0.374449
  Peripheral clustering of KANK1, edge ratio, AV, 10 uM: 2.344
[1]; Y-27632 10 uM, 45 min, mean, n = 12, SEM 7.32023
  Peripheral clustering of KANK1, percentage of control, AV, 10 uM: 45.8254 percentage of control condition average value
[1]; Y-27632, HeLa
  CMSC clustering at the cell edge (in words): sufficient to diminish CMSC clustering at the cell edge
[2]
  size of FAs (in words): their size was reduced
[3]; Y-27632 1 uM, mean, n = 30, sem 0.0310046, control 0.0606667
  KANK1 and talin colocalization, Pearson R value, av, 1 uM: 0.496
[3]; Y-27632 10 uM, mean, n = 30, sem 0.0260316, control 0.0606667
  KANK1 and talin colocalization, Pearson R value, av, 10 uM: 0.535
[3]; Y-27632, HeLa
  overlap of KANK1 with FA adhesion markers (in words): very significant increase in the overlap of KANK1 with FA adhesion markers
[4]; HeLa, Y-27632 1 uM, 45 min, mean of 7 cells (SD 17.5499, SEM 6.63325)
  AV #FA (mean number of focal adhesions per cell): 54
[4]; Y-27632, HeLa
  number of FAs (in words): the number of FAs was not affected
